The values below come from ChEMBL document CHEMBL4190197, “Nepetaefolins A-J, Cytotoxic Chinane and Abietane Diterpenoids from Caryopteris nepetaefolia” (J Nat Prod, 2017).

What all share (assay type): functional
Holding throughout (details): Homo sapiens, 144 h

Assay [1] is described as follows: Antiproliferative activity against non-small cell lung cancer patient-derived LUPF045 cells after 6 days by ATP-TCA method.
The nature of assay [2]: Antiproliferative activity against ovarian cancer patient-derived OVPF038 cells after 6 days by ATP-TCA method.
Assay [3] is described as follows: Antiproliferative activity against ovarian cancer patient-derived OVPF008 cells after 6 days by ATP-TCA method.
The nature of assay [4]: Antiproliferative activity against non-small cell lung cancer patient-derived LUPF003 cells after 6 days by ATP-TCA method.

Consider `CC(=O)O[C@H]1C(=O)[C@@]2(C)[C@H]([C@H](OC(=O)c3ccccc3)[C@]3(O)C[C@H](OC(=O)[C@H](O)[C@@H](NC(=O)c4ccccc4)c4ccccc4)C(C)=C1C3(C)C)[C@]1(OC(C)=O)CO[C@@H]1C[C@@H]2O` [PACLITAXEL], for which the half-maximal inhibitory concentration (IC50) in assay [1] was determined as 11.2 µM; in assay [2], 1.4 µM; in assay [3], 1.1 µM; in assay [4], 11 µM.

With `CC(=O)OC[C@@]1(C)[C@@H](O)CC[C@]2(C)c3ccc(C(C)C)cc3CC[C@@H]12`, the concentration for half-maximal inhibition (IC50) in assay [1] is 6.3 µM; in assay [2], 12.7 µM; in assay [3], 7.9 µM; in assay [4], 31.5 µM.

`CC(C)[C@]12C=C3CC[C@H]4[C@@](C)(CO)[C@@H](O)CC[C@]4(C)[C@]3(CC1)OO2`: the IC50 in assay [1] was more than 50 µM.

Take `C=C(C)c1ccc2c(c1)CC[C@H]1C3=C(CC[C@]21C)C(=O)OC3`: the concentration for half-maximal inhibition (IC50) was found to be 9 µM in assay [1], 19.3 µM in assay [2], 16.8 µM in assay [3] and 11.7 µM in assay [4].

Turning to `CC(C)(O)c1cc2c(cc1O)[C@@]1(C)CCC3=C(COC3=O)[C@@H]1CC2`, the concentration for half-maximal inhibition (IC50) is more than 50 µM in assay [2], more than 50 µM in assay [3] and 44.7 µM in assay [4].

As for `CC(C)[C@]12C=C3CC[C@@H]4[C@](C)(CCC[C@]4(C)C(=O)O)[C@]3(CC1)OO2`, the IC50 in assay [1] is more than 50 µM.

Regarding `C=C(C)c1cc2c(cc1O)[C@@]1(C)CCC3=C(COC3=O)[C@@H]1CC2`, the figures for the half-maximal inhibitory concentration (IC50) in assay [1], in assay [2] and in assay [4] were 49.6 µM, more than 50 µM and 43.8 µM, respectively.

`CC(C)[C@@]12C=C3CC[C@H]4[C@@](C)(CO)[C@@H](O)CC[C@]4(C)[C@]3(CC1)OO2`: the 50% inhibitory concentration (IC50) was 49.7 µM in assay [1], more than 50 µM in assay [2] and more than 50 µM in assay [3].
